This passage reports T/C results from PubChem BioAssay AID330 (DTP/NCI, 2004).

SMILES strings stand for the structures. Several values for one entry are separate records, joined by “and”; a condition that tells them apart may be missing. Identical values can stand only once. Inconclusive results and toxic doses are left out.

This assay has as its system P388 leukemia ip, CD2F1 mice, survival T/C. Nature of the assay: NCI In Vivo Anticancer Drug Screen. Data for tumor model P388 Leukemia (intraperitoneal) in CD2F1 (CDF1) mice. Conditions: endpoint: median survival time, higher = longer survival. The procedure, abridged:
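Mice carrying the transplanted tumor received test compound or vehicle. Survival was recorded in each group, and the value is the treated-group measurement divided by that of the vehicle-treated control group.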

Where [1] appears, read: dose: 12.5 mg/kg/injection, schedule: Q01DX009 (ip), vehicle: water.
Where [2] appears, read: dose: 50.0 mg/kg/injection, schedule: Q01DX005 (ip), vehicle: saline.
The mark [3] stands for this setting: dose: 100.0 mg/kg/injection, schedule: Q01DX005 (ip), vehicle: saline.
The mark [4] stands for this setting: dose: 100.0 mg/kg/injection, schedule: Q04DX002 (ip), vehicle: saline with Tween-80.
[5] abbreviates: dose: 200.0 mg/kg/injection, schedule: Q04DX002 (ip), vehicle: saline with Tween-80.
Setting [6] is: dose: 50.0 mg/kg/injection, schedule: Q01DX005 (ip), vehicle: saline with Tween-80.
The mark [7] stands for this setting: dose: 100.0 mg/kg/injection, schedule: Q01DX005 (ip), vehicle: saline with Tween-80.
Where [8] appears, read: dose: 200.0 mg/kg/injection, schedule: Q01DX005 (ip), vehicle: saline with Tween-80.
Setting [9] is: dose: 2.5 mg/kg/injection, schedule: Q01DX009 (ip), vehicle: saline with Tween-80.
[10] abbreviates: dose: 5.0 mg/kg/injection, schedule: Q01DX009 (ip), vehicle: saline with Tween-80.
[11] abbreviates: dose: 100.0 mg/kg/injection, schedule: Q01DX009 (ip), vehicle: saline with Tween-80.
Setting [12] is: dose: 200.0 mg/kg/injection, schedule: Q01DX009 (ip), vehicle: saline with Tween-80.
The mark [13] stands for this setting: dose: 400.0 mg/kg/injection, schedule: Q01DX009 (ip), vehicle: saline with Tween-80.
Setting [14] is: dose: 100.0 mg/kg/injection, schedule: Q04DX003 (ip), vehicle: Klucel (hydroxypropylcellulose) (HPC).

With `Nc1n[n+](C2CCCCC2)no1`, the T/C is, setting by setting: (dose: 3.13 mg/kg/injection, schedule: Q01DX009 (ip), vehicle: water) 111 % of control; (dose: 6.25 mg/kg/injection, schedule: Q01DX009 (ip), vehicle: water) 98 % of control; under setting [1], 101 % of control.

For `c1ccc2c(c1)Cc1ccccc1N2CCN1CCCCC1`, the T/C was 101 % of control under setting [2] and 104 % of control under setting [3].

With `O=C(O)C[n+]1cccc2ccccc21`, the T/C runs as follows: under setting [2], 103 % of control; under setting [3], 93 % of control; (dose: 200.0 mg/kg/injection, schedule: Q01DX005 (ip), vehicle: saline) 87 % of control.

As for `COc1cc(NC(C)CCCN)c2nc(C)ccc2c1Oc1ccc(F)cc1` (configuration not stated), the T/C runs as follows: under setting [1], 109 % of control; (dose: 25.0 mg/kg/injection, schedule: Q01DX009 (ip), vehicle: water) 92 % of control.

As to `CC1C(=O)C2(C(=O)O)CC1CCC2C12C=CC(=O)C(C)(C)C1C(=O)OC2` (configuration not stated), the T/C by setting is: (dose: 50.0 mg/kg/injection, schedule: Q04DX002 (ip), vehicle: saline with Tween-80) 100 % of control; under setting [4], 95 % of control; under setting [5], 91 % of control.

With `CCn1c2ccccc2c2cc(N=Nc3cc(CN(C)C)c(O)c4ncccc34)ccc21`, the T/C was 100 % of control under setting [6], 100 % of control under setting [7] and 100 % of control under setting [8].

On to `CC1=CC(C)=C(C#N)C2=S=C(c3ccccc3)C(=O)N12`, for which the T/C is, setting by setting: (dose: 6.25 mg/kg/injection, schedule: Q01DX005 (ip), vehicle: saline with Tween-80) 97 % of control; (dose: 12.5 mg/kg/injection, schedule: Q01DX005 (ip), vehicle: saline with Tween-80) 94 % of control; (dose: 25.0 mg/kg/injection, schedule: Q01DX005 (ip), vehicle: saline with Tween-80) 94 % of control; under setting [7], 88 % of control; under setting [8], 88 % of control.

Regarding `COc1ccccc1N=N/C(=N\Nc1ccccc1OC)C(=O)Nc1ccccc1`, the T/C runs as follows: (dose: 6.25 mg/kg/injection, schedule: Q01DX009 (ip), vehicle: saline) 89 % of control; (dose: 12.5 mg/kg/injection, schedule: Q01DX009 (ip), vehicle: saline) 91 % of control; (dose: 25.0 mg/kg/injection, schedule: Q01DX009 (ip), vehicle: saline) 90 % of control; (dose: 100.0 mg/kg/injection, schedule: Q01DX009 (ip), vehicle: saline) 93 % of control.

On to `c1ccc(Nc2nnc3nc(-c4ccccc4)c(-c4ccccc4)nn23)cc1`, for which the T/C by setting is: under setting [6], 91 % of control; under setting [7], 90 % of control; under setting [8], 102 % of control.

Consider `COc1cc2ccc(C(C)=O)c(O)c2cc1OC`, for which the T/C is, setting by setting: (dose: 12.5 mg/kg/injection, schedule: Q01DX009 (ip), vehicle: other) 92 % of control; (dose: 25.0 mg/kg/injection, schedule: Q01DX009 (ip), vehicle: other) 101 % of control; (dose: 50.0 mg/kg/injection, schedule: Q01DX009 (ip), vehicle: other) 90 % of control; (dose: 100.0 mg/kg/injection, schedule: Q01DX009 (ip), vehicle: other) 108 % of control; (dose: 200.0 mg/kg/injection, schedule: Q01DX009 (ip), vehicle: other) 97 % of control; (dose: 400.0 mg/kg/injection, schedule: Q01DX009 (ip), vehicle: other) 99 % of control.

`Cc1c(-c2ccc(C(=N)N)cc2)oc(-c2ccc(C(=N)N)cc2)c1C`: the T/C is, setting by setting: (dose: 3.13 mg/kg/injection, schedule: Q01DX009 (ip), vehicle: saline with Tween-80) 104 % of control; (dose: 6.25 mg/kg/injection, schedule: Q01DX009 (ip), vehicle: saline with Tween-80) 112 % of control.

For the molecule `Cc1ccccc1NC(=O)Nc1sc(=S)c2c(c1C#N)CCCC2`, the T/C runs as follows: under setting [6], 94 % of control; under setting [7], 103 % of control; under setting [8], 103 % of control.

In the case of `COc1ccc2c(c1)CCC1=C2N=CN2CCN=C12`, the T/C under setting [4] was 102 % of control.

In the case of `Nc1nnc2nc(C(C(=O)c3ccc(Cl)cc3Cl)c3nc4nnc(N)n4[nH]c3=O)c(=O)[nH]n12`, the T/C by setting is: under setting [6], 92 % of control; under setting [7], 100 % of control; under setting [8], 100 % of control.

For the molecule `COC1=CC(=O)C(C/C=C/c2ccccc2)=CC1=O`, the T/C reads like this: under setting [9], 103 % of control; under setting [10], 105 % of control; (dose: 10.0 mg/kg/injection, schedule: Q01DX009 (ip), vehicle: saline with Tween-80) 105 % of control.

`CCOC(=O)c1c(C)csc1NC(C)=O`: the T/C is, setting by setting: under setting [11], 120 % of control; under setting [12], 115 % of control; under setting [13], 115 % of control.

As to `[O]=[Nb]`, the T/C is 100 % of control under setting [9] and 100 % of control under setting [10].

`CCCCOC(=O)C(C)OC(=O)Nc1cccc(C)c1` (configuration not stated): the T/C (dose: 100.0 mg/kg/injection, schedule: Q04DX002 (ip), vehicle: Klucel (hydroxypropylcellulose) (HPC)) is 105 % of control; the T/C (dose: 200.0 mg/kg/injection, schedule: Q04DX002 (ip), vehicle: Klucel (hydroxypropylcellulose) (HPC)) was 103 % of control; the T/C (dose: 400.0 mg/kg/injection, schedule: Q04DX002 (ip), vehicle: Klucel (hydroxypropylcellulose) (HPC)) is 100 % of control.

Take `CCOC(=O)Cc1cccc(C)n1`: the T/C is, setting by setting: under setting [11], 100 % of control; under setting [12], 109 % of control; under setting [13], 104 % of control.

For the molecule `OCCN(CCO)C(Cc1ccccc1)c1ccccc1` (configuration not stated), the T/C is 110 % of control under setting [6], 105 % of control under setting [7] and 110 % of control under setting [8].

Turning to `O=C1C=CC2(CCCCC2)CC1`, the T/C reads like this: (dose: 25.0 mg/kg/injection, schedule: Q04DX003 (ip), vehicle: Klucel (hydroxypropylcellulose) (HPC)) 97 % of control; (dose: 50.0 mg/kg/injection, schedule: Q04DX003 (ip), vehicle: Klucel (hydroxypropylcellulose) (HPC)) 97 % of control; under setting [14], 95 % of control.

Regarding `COc1ccc(C(C)c2cc3c(cc2OCCOC(C)=O)OCO3)cc1` (configuration not stated), the T/C was 103 % of control under setting [4]; 100 % of control under setting [5]; 100 % of control (dose: 400.0 mg/kg/injection, schedule: Q04DX002 (ip), vehicle: saline with Tween-80).

As to `CCN(CCC#N)C(=O)c1cccc([N+](=O)[O-])c1`, the T/C by setting is: (dose: 60.0 mg/kg/injection, schedule: Q01DX005 (ip), vehicle: Klucel (hydroxypropylcellulose) (HPC)) 102 % of control; (dose: 120.0 mg/kg/injection, schedule: Q01DX005 (ip), vehicle: Klucel (hydroxypropylcellulose) (HPC)) 94 % of control.

As for `Cc1ccc(NC(=O)N(CCCl)N=O)c(C)c1`, the T/C was 190 % of control (dose: 16.5 mg/kg/injection, schedule: Q04DX003 (ip), vehicle: saline with Tween-80); 250 % of control (dose: 25.0 mg/kg/injection, schedule: Q04DX003 (ip), vehicle: saline with Tween-80); 90 % of control (dose: 37.5 mg/kg/injection, schedule: Q04DX003 (ip), vehicle: saline with Tween-80).

As for `O=C1NN=C(c2ccc(Br)cc2)CS1`, the T/C runs as follows: (dose: 50.0 mg/kg/injection, schedule: Q01DX009 (ip), vehicle: saline with Tween-80) 92 % of control and 97 % of control; under setting [11], 101 % of control and 87 % of control; under setting [12], 113 % of control and 120 % of control.

For `Cn1cnc2cc(N3CCCCC3)c(Nc3ccc([N+](=O)[O-])cc3[N+](=O)[O-])cc2c1=O`, the T/C was 103 % of control under setting [14]; 98 % of control (dose: 200.0 mg/kg/injection, schedule: Q04DX003 (ip), vehicle: Klucel (hydroxypropylcellulose) (HPC)); 95 % of control (dose: 400.0 mg/kg/injection, schedule: Q04DX003 (ip), vehicle: Klucel (hydroxypropylcellulose) (HPC)).
